The kinase profiling compilation of Christmann-Franck et al. (2016)

What was measured:
Experiment in all cases: KINOMEscan competition binding
Details in all cases: compound 10.0 µM
AXL (human) = AXL (human) (UniProt P30530)
CAMK1G (human) = CAMK1G (human) (UniProt Q96NX5)
CAMK2D (human) = CAMK2D (human) (UniProt Q13557)
CDK5 (human) = CDK5 (human) (UniProt Q00535)
CHEK1 (human) = CHEK1 (human) (UniProt O14757)
CHUK (human) = CHUK (human) (UniProt O15111)
CSF1R (human) = CSF1R (human) (UniProt P07333)
CSF1R (human), sequence (P07333 whole entry, looked up): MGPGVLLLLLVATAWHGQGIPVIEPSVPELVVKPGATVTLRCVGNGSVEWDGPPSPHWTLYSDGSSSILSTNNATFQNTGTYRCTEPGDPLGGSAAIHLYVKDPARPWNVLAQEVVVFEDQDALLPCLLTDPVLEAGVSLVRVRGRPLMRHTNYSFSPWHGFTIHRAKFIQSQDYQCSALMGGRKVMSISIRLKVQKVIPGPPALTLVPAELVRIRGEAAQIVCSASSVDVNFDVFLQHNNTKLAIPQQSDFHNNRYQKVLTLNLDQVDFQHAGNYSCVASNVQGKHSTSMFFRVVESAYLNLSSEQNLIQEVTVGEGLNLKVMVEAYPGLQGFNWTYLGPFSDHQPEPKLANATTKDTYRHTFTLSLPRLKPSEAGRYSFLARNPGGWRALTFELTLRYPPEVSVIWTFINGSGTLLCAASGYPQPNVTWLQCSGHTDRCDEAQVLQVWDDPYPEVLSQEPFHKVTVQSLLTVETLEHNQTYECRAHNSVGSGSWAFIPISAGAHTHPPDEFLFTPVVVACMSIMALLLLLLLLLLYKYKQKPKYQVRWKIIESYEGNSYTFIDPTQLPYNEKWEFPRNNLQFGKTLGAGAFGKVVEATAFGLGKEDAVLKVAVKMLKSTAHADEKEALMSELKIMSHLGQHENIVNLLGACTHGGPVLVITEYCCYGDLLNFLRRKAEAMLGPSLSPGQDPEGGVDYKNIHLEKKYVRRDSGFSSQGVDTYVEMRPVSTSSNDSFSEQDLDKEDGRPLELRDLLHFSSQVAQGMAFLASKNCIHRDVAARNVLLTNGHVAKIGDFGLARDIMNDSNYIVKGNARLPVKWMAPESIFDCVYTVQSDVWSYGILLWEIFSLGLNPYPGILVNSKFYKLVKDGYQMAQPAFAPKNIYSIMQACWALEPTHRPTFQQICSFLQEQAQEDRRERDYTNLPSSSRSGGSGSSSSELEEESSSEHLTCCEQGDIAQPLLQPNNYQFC

CSNK2A1 (human) = CSNK2A1 (human) (UniProt P68400)
CSNK2A1 (human), sequence (P68400 whole entry, looked up): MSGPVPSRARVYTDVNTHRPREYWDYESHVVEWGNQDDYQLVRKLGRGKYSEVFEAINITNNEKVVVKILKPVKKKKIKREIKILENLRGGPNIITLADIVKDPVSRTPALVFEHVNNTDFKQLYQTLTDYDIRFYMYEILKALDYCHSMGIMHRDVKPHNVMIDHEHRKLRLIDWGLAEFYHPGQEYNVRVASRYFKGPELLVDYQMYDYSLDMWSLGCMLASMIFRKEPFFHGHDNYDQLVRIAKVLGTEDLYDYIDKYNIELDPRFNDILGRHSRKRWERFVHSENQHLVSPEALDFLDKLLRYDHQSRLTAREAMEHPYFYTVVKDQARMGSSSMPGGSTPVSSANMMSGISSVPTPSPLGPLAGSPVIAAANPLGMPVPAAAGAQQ

DCLK3 (human) = DCLK3 (human) (UniProt Q9C098)
DMPK (human) = DMPK (human) (UniProt Q09013)
EPHA1 (human) = EPHA1 (human) (UniProt P21709)
FGFR1 (human) = FGFR1 (human) (UniProt P11362)
FLT1 (human) = FLT1 (human) (UniProt P17948)
GSK3B (human) = GSK3B (human) (UniProt P49841)
INSRR (human) = INSRR (human) (UniProt P14616)
ITK (human) = ITK (human) (UniProt Q08881)
LYN (human) = LYN (human) (UniProt P07948)
MAP2K1 (human) = MAP2K1 (human) (UniProt Q02750)
MAP2K2 (human) = MAP2K2 (human) (UniProt P36507)
MAP3K12 (human) = MAP3K12 (human) (UniProt Q12852)
MAP3K12 (human), sequence (Q12852 whole entry, looked up): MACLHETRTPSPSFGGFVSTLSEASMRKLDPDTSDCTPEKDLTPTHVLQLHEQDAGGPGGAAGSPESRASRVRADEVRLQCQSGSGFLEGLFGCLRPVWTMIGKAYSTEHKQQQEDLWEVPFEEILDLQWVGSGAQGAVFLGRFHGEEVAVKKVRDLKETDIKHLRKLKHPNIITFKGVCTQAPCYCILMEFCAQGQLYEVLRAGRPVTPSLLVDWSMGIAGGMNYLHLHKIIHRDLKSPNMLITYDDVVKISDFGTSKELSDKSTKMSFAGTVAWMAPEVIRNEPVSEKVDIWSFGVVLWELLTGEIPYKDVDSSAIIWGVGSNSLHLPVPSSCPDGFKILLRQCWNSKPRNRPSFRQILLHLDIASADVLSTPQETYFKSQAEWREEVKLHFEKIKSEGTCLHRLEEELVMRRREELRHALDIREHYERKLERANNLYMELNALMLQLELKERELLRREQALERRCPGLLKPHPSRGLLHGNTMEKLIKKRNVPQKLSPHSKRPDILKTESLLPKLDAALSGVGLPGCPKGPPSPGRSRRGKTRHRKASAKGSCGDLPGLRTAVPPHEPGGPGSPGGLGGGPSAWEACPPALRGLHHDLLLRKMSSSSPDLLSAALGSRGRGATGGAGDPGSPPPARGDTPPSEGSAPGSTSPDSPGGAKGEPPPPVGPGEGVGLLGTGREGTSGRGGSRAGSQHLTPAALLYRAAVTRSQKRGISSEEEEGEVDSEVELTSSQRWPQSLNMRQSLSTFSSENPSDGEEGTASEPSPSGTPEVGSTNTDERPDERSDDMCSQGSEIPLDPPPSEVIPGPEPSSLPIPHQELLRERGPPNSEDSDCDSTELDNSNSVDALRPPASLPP

MAPK12 (human) = MAPK12 (human) (UniProt P53778)
MAPK12 (human), sequence (P53778 whole entry, looked up): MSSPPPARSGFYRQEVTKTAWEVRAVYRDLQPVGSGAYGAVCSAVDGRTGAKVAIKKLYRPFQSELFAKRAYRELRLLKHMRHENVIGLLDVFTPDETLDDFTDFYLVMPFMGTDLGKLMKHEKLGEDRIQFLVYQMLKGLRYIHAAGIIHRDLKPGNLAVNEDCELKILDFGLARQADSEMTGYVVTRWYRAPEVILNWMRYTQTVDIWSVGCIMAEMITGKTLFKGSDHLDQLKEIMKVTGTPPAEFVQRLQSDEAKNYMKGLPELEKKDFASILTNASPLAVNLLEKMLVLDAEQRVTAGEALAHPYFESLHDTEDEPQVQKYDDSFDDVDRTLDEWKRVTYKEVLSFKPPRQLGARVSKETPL

MAPKAPK2 (human) = MAPKAPK2 (human) (UniProt P49137)
MARK4 (human) = MARK4 (human) (UniProt Q96L34)
NEK5 (human) = NEK5 (human) (UniProt Q6P3R8)
NTRK2 (human) = NTRK2 (human) (UniProt Q16620)
NTRK2 (human), sequence (Q16620 whole entry, looked up): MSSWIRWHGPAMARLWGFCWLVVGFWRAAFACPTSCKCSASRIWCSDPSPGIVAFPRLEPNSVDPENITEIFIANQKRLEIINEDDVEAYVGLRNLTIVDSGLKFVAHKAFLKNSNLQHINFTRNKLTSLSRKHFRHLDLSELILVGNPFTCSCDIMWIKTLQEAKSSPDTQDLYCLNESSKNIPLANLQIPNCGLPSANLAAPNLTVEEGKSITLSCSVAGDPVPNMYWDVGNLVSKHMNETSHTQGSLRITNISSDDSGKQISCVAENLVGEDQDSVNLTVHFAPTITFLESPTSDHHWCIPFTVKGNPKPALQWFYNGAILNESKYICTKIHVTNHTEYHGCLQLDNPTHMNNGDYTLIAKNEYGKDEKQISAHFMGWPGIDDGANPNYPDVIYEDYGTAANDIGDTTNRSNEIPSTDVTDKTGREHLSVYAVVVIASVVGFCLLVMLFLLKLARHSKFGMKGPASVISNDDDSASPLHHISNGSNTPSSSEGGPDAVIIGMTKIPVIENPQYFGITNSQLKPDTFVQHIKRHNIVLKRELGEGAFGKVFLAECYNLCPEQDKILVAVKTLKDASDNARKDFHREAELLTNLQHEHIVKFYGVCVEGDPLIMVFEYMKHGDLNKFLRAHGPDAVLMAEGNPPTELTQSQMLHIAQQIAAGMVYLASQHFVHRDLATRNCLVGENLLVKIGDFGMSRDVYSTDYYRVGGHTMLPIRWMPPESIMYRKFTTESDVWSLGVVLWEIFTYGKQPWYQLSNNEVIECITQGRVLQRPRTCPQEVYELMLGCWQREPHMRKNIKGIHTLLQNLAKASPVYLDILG

PKN1 (human) = PKN1 (human) (UniProt Q16512)
PKN2 (human) = PKN2 (human) (UniProt Q16513)
PLK4 (human) = PLK4 (human) (UniProt O00444)
PRKCH (human) = PRKCH (human) (UniProt P24723)
RIPK1 (human) = RIPK1 (human) (UniProt Q13546)
ROCK2 (human) = ROCK2 (human) (UniProt O75116)
RPS6KA4 KD2 (human) = RPS6KA4 KD2 (human) (UniProt O75676)
RPS6KA6 KD1 (human) = RPS6KA6 KD1 (human) (UniProt Q9UK32)
SLK (human) = SLK (human) (UniProt Q9H2G2)
SRMS (human) = SRMS (human) (UniProt Q9H3Y6)
SRPK3 (human) = SRPK3 (human) (UniProt Q9UPE1)
SYK (human) = SYK (human) (UniProt P43405)
TSSK1B (human) = TSSK1B (human) (UniProt Q9BXA7)
TTK (human) = TTK (human) (UniProt P33981)
ULK3 (human) = ULK3 (human) (UniProt Q6PHR2)
ULK3 (human), sequence (Q6PHR2 whole entry, looked up): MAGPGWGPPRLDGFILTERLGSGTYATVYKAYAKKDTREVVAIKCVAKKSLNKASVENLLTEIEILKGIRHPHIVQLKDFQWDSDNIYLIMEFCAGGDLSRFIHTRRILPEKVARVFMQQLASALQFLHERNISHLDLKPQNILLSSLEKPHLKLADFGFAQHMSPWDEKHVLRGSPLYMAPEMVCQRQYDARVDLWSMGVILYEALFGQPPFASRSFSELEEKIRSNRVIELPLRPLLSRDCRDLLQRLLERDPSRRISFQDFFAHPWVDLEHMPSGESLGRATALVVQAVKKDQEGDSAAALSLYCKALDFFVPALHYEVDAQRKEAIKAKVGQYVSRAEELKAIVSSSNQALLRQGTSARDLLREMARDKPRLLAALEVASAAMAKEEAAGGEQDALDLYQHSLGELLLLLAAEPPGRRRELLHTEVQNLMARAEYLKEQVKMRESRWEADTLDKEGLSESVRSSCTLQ

AXL (human), sequence (P30530 whole entry, looked up): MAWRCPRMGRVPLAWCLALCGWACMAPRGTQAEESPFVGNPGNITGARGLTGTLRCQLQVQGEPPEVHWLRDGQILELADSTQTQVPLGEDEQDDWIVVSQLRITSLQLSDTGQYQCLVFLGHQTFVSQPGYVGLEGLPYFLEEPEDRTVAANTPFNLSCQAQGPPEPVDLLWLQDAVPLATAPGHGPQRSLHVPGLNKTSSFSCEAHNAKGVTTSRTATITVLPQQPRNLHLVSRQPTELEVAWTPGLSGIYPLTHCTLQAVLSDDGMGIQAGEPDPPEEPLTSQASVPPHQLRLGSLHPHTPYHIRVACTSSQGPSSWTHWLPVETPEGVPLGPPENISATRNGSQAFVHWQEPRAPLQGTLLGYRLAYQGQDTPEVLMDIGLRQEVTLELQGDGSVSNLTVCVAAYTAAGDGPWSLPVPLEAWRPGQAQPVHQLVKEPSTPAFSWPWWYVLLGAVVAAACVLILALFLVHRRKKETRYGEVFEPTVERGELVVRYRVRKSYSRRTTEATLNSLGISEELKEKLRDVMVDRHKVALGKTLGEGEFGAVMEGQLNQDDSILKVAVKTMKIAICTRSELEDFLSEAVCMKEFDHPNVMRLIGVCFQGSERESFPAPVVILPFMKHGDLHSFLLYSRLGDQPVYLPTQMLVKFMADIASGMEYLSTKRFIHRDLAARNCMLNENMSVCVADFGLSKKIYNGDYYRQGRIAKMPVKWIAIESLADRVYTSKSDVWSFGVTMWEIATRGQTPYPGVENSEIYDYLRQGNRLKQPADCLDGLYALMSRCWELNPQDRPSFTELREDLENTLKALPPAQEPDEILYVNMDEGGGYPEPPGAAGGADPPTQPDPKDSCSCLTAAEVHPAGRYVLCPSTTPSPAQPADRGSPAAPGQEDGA

Structure (SMILES)	kinase still bound, per cent of control (AXL (human))	kinase still bound, per cent of control (CAMK1G (human))	kinase still bound, per cent of control (CAMK2D (human))	kinase still bound, per cent of control (CDK5 (human))	kinase still bound, per cent of control (CHEK1 (human))	kinase still bound, per cent of control (CHUK (human))	kinase still bound, per cent of control (CSF1R (human))	kinase still bound, per cent of control (CSNK2A1 (human))	kinase still bound, per cent of control (DCLK3 (human))	kinase still bound, per cent of control (DMPK (human))	kinase still bound, per cent of control (EPHA1 (human))	kinase still bound, per cent of control (FGFR1 (human))	kinase still bound, per cent of control (FLT1 (human))	kinase still bound, per cent of control (GSK3B (human))	kinase still bound, per cent of control (INSRR (human))	kinase still bound, per cent of control (ITK (human))	kinase still bound, per cent of control (LYN (human))	kinase still bound, per cent of control (MAP2K1 (human))	kinase still bound, per cent of control (MAP2K2 (human))	kinase still bound, per cent of control (MAP3K12 (human))	also measured
C=CC(=O)Nc1cc(NC(=O)c2ccc(C)c(NC(=O)c3ccno3)c2)cc(C(F)(F)F)c1	100%	91%	83%	90%	96%	100%	38%	100%	100%	100%	99%	100%	100%	100%	100%	93%	34%	87%	93%	100%	kinase still bound, per cent of control (MAPK12 (human)): 96%; kinase still bound, per cent of control (MAPKAPK2 (human)): 100%; kinase still bound, per cent of control (MARK4 (human)): 100%; kinase still bound, per cent of control (NEK5 (human)): 100%; kinase still bound, per cent of control (NTRK2 (human)): 84%; kinase still bound, per cent of control (PKN1 (human)): 96%; kinase still bound, per cent of control (PKN2 (human)): 100%; kinase still bound, per cent of control (PLK4 (human)): 91%; kinase still bound, per cent of control (PRKCH (human)): 100%; kinase still bound, per cent of control (RIPK1 (human)): 100%; kinase still bound, per cent of control (ROCK2 (human)): 85%; kinase still bound, per cent of control (RPS6KA4 KD2 (human)): 94%; kinase still bound, per cent of control (RPS6KA6 KD1 (human)): 86%; kinase still bound, per cent of control (SLK (human)): 100%; kinase still bound, per cent of control (SRMS (human)): 77%; kinase still bound, per cent of control (SRPK3 (human)): 100%; kinase still bound, per cent of control (SYK (human)): 100%; kinase still bound, per cent of control (TSSK1B (human)): 93%; kinase still bound, per cent of control (TTK (human)): 77%; kinase still bound, per cent of control (ULK3 (human)): 97%
Cn1c(=O)n(-c2ccc(C(C)(C)C#N)cc2)c2c3cc(-c4cnc5ccccc5c4)ccc3ncc21	100%	100%	100%	100%	100%	100%	100%	100%	100%	100%	100%	100%	100%	100%	100%	100%	100%	100%	100%	100%	kinase still bound, per cent of control (MAPK12 (human)): 100%; kinase still bound, per cent of control (MAPKAPK2 (human)): 100%; kinase still bound, per cent of control (MARK4 (human)): 100%; kinase still bound, per cent of control (NEK5 (human)): 100%; kinase still bound, per cent of control (NTRK2 (human)): 100%; kinase still bound, per cent of control (PKN1 (human)): 100%; kinase still bound, per cent of control (PKN2 (human)): 100%; kinase still bound, per cent of control (PLK4 (human)): 100%; kinase still bound, per cent of control (PRKCH (human)): 100%; kinase still bound, per cent of control (RIPK1 (human)): 100%; kinase still bound, per cent of control (ROCK2 (human)): 100%; kinase still bound, per cent of control (RPS6KA4 KD2 (human)): 100%; kinase still bound, per cent of control (RPS6KA6 KD1 (human)): 100%; kinase still bound, per cent of control (SLK (human)): 100%; kinase still bound, per cent of control (SRMS (human)): 100%; kinase still bound, per cent of control (SRPK3 (human)): 100%; kinase still bound, per cent of control (SYK (human)): 100%; kinase still bound, per cent of control (TSSK1B (human)): 100%; kinase still bound, per cent of control (TTK (human)): 100%; kinase still bound, per cent of control (ULK3 (human)): 100%
